# Results as given in PubChem BioAssay AID1508591.
# Conditions: rat; liver microsomes; pH 7.4; 15.0 min; 1.0 µM
row,Structure (SMILES),half-life [min]
1,CC(=O)N1CCc2cc(-c3nc(NC(=O)Cc4ccc5c(c4)OCO5)sc3C)ccc21,20
2,C[C@@H](NC(=O)c1ncnc(N)c1Cl)c1ncc(C(=O)Nc2cc(C(F)(F)F)c(Cl)cn2)s1,> 30
3,O=C1Nc2ccc(C(=O)c3ccco3)cc2/C1=C/c1cc(Cl)c(O)c(Cl)c1,7.7
4,COC(=O)c1sccc1NC(=O)c1sccc1C,1.46
5,CC[C@H]1NC(=O)[C@@H](NC(=O)c2ncccc2O)[C@@H](C)OC(=O)[C@H](c2ccccc2)NC(=O)[C@@H]2CC(=O)CCN2C(=O)[C@H](Cc2ccccc2)N(C)C(=O)[C@@H]2CCCN2C1=O,> 30
6,O=[N+]([O-])c1ccc(/C=N/n2c(CO)nc3ccccc32)s1,21
7,CC(=O)c1c(C)[nH]c(C(=O)Nc2cccc(S(=O)(=O)Nc3ccc(Br)c(F)c3)c2)c1C,17
8,COc1cccc(-n2nc(C(=O)O)cc2-c2ccc(C3CCCCC3)c(Cl)c2)c1,> 30
9,Cc1ccc2c(c1)N(S(=O)(=O)c1cc(-c3onc(C)c3C)ccc1C)CCO2,1.56
10,NC(=O)NCC(=O)N[C@H]1CC[C@H](Nc2nccc(-c3ccncc3)n2)C1,> 30
11,Cn1ccc2c(C(=O)NCC3CCC(=O)N3)nc(-c3ccccc3C#N)cc21 (stereo unspecified),21.9
12,Cc1ccc(C(=O)Nc2nc(-c3ccccn3)cs2)cc1S(=O)(=O)N1CCOCC1,4.16
13,CN(C)c1cccc(-c2cnc(N3CCC(C(N)=O)CC3)nc2)c1,16.8
14,Cc1nc2sccn2c(=O)c1S(=O)(=O)Nc1ccc(N2CCN(C)CC2)cc1,17.8
15,CC(=O)c1c(C)[nH]c(C(=O)Nc2ccc(C)c(S(=O)(=O)N3CCCCCC3)c2)c1C,1.9
16,O=C(Nc1ccc(Cl)c(S(=O)(=O)N2CCOCC2)c1)c1ccc(S(=O)(=O)N2CCOCC2)cc1,6.4
17,CCCN(C(=O)c1sc2nc3n(c(=O)c2c1C)CCCC3)c1ccccc1C,1.36
18,CCOc1ccc(CCNC(=O)c2cc3ccccc3n2Cc2ccccn2)cc1OCC,1.5
19,CC(=O)O[C@H]1CC[C@]2(C)C(=CC[C@H]3[C@H]4C[C@H]5O[C@]6(CC[C@H](C)CN6)[C@H](C)[C@@H]5[C@]4(C)CC[C@@H]32)C1,1.58
20,CCS(=O)(=O)c1ncc(N(Cc2ccc(F)cc2)Cc2ccco2)c(C(=O)Nc2cc(C)ccc2C)n1,3.51
21,CC(C)NC(=O)c1nc(-c2ccc(Cl)nc2)c2ccccn12,19.6

row,Structure (SMILES),half-life [min]
1,COc1cccc(CNc2ccc(S(=O)(=O)Nc3ccc(N4CCNCC4)nc3)cc2)c1O,> 30
2,Cc1c(C(=O)NN2CCCCC2)nn(-c2ccc(Cl)cc2Cl)c1-c1ccc(Cl)cc1,5.9
3,CN(C)CCCN1c2ccc(O)cc2Sc2ccc(Cl)cc21,10.7
4,COc1cccc(NC(=O)c2cccc3c(=O)c4c([nH]c23)CCCC4)c1,16.3
5,Cc1ccc(OCCn2c(CCNC(=O)N3CCCCC3)nc3ccccc32)cc1,1.7
6,Oc1cccc2nc3ccccc3nc12,8.9
7,CCOC(=O)C1(Cc2ccccc2C(F)(F)F)CCN(C2CCN(C(C)C)CC2)CC1,> 30
8,Nc1c(C(=O)N2CCCCC2)sc(=S)n1-c1ccccc1,6.6
9,C/C(=N\NC(N)=S)C1=CCC2C3CC[C@H]4CC(O)CC[C@]4(C)C3CC[C@]12C (stereo partly specified),> 30
10,CCCCCn1cc2c(c1-c1ccc(Br)cc1)c(=O)n(C)c(=O)n2C,6.39
11,Cc1nn(CCc2nc(-c3ccc(OC(F)F)cc3)cs2)c2[nH]c(=O)cc(C(F)(F)F)c12,6.9
12,NC(=O)C1CCN(c2cc(-c3ccc4c(c3)OCCCO4)ncn2)CC1,> 30
13,COc1cc(-c2nc(-c3c(C)noc3C)cc3c2cc(C)n3CCN(C)C)ccn1,19.7
14,O=S(=O)(Nc1ccccc1N1CCCCC1)c1ccc(Cl)s1,2.02
15,COc1ccc(C(=O)NC2CCCc3c2[nH]c2ccccc32)cc1OC (stereo unspecified),24.6
16,Cc1ccccc1C(=O)NC1CCN(c2ccc3nnc(C4CC4)n3n2)CC1,> 30
17,O=C(Nc1ccc([N+](=O)[O-])cc1Cl)c1cc(Cl)ccc1O,> 30
18,O=C(/C=C/c1cn(CC(O)CN2CCCCCC2)c2ccccc12)c1ccc(Br)cc1 (stereo unspecified),24.2
19,COc1ccc(CNc2ccc(S(=O)(=O)Nc3nccs3)cc2)cc1O,> 30
20,Cc1ccc(NC(=O)c2cc(-c3ccc[nH]3)n[nH]2)cc1F,6.16
21,CC(CCc1ccc(O)cc1)NCc1ccc(Cl)cc1Cl (stereo unspecified),1.7

row,Structure (SMILES),half-life [min]
1,O=C(Nc1nnc(-c2cccs2)o1)c1ccc(Cl)cc1,2.9
2,Cc1cc(C)cc(NS(=O)(=O)c2ccc3[nH]cc(C(=O)NCc4ccco4)c(=O)c3c2)c1,1.84
3,Cc1cc(C)nc(NC(=S)N2CCN(c3cccc([N+](=O)[O-])c3)CC2)c1,17
4,O=C(NCCCn1ccnc1)c1ccc(-c2ncc3cnc(-c4cccc(F)c4)cn23)cc1,22.5
5,Cc1ccc(S(=O)(=O)Nc2ccccc2N2CCCCC2)cc1,1.69
6,COc1cccc(CNc2ccc(S(=O)(=O)Nc3cc(C)on3)cc2)c1O,> 30
7,COC(=O)CNC(=O)c1nc(-c2ccc(Cl)nc2)c2cnccn12,16.4
8,CCOC(=O)c1[nH]c(C)c(CCC(=O)N2CCN(c3cc(Cl)ccc3C)CC2)c1C,1.8
9,Cc1cnc(-c2ccccc2C(C)C)nc1NCC1CN(c2cccnc2)C1,2.6
10,Cc1cc(-c2nnc3n2CCCCC3)c(C)n1-c1ccc([N+](=O)[O-])cc1,2.5
11,NC(=O)C1CCN(c2nccc(Cl)n2)CC1,> 30
12,NC[C@H](O)c1ccc(O)c(O)c1,13.4
13,CCN(CC)S(=O)(=O)c1cccc(C(=O)Nc2ccc(C#N)cc2)c1,3.8
14,CC(=O)Nc1ccc(OCc2cn(CC(=O)c3ccc(O)cc3)nn2)cc1,> 30
15,Cc1[nH]c2ccccc2c1CN1CCN(c2ccccn2)CC1,1.7
16,CCOc1cc(CNc2ccc(O)cc2)ccc1OCc1ccc(Cl)cc1,3.84
17,C[C@]12CC[C@@H]3[C@H](CCC4=CC(=O)CC[C@]43C)[C@]1(O)CC[C@@]2(O)C(=O)CO,20.9
18,COC(=O)CNC(=O)c1nc(-c2ccc([S+](C)(=O)[O-])cc2)c2ccccn12,> 30
19,CC(=O)c1c(C)c(C(=O)Nc2cccc([S+](=O)([O-])N(C)C)c2)n(C)c1C,15
20,CNC1CCC(N(Cc2ccc(OC)c(-c3ccc(C#N)cc3)c2)C(=O)c2sc3ccccc3c2Cl)CC1 (stereo unspecified),> 30

# The remaining lines, values ahead:
row,half-life [min],Structure (SMILES)
1,1.9,COc1ccc(C2=Nn3c(nnc3-c3ccncc3)SC2)cc1
2,2.74,FC(F)(F)c1ccccc1-c1nc(NCc2ccccc2)c2ccccc2n1
3,15,O=C(Nc1nc(-c2ccccc2)cs1)c1ccncc1NS(=O)(=O)c1ccccc1Cl
4,9.6,COc1ccccc1C(=O)N1CCc2cc(-c3nc(NC(=O)Cc4ccc5c(c4)OCO5)sc3C)ccc21
5,17,Cc1ccc(-c2cc(C(=O)NCc3ccc(S(N)(=O)=O)cc3)c3ccccc3n2)cc1C
6,11,Cc1ccccc1C(=O)N1CCc2cc(N3CCC(NC(=O)Cc4ccccc4)C3)ccc21 (stereo unspecified)
7,18,COc1ccccc1C(=O)Nc1ccccc1C(=O)Nc1cccc(SC(F)(F)F)c1
8,3.5,COc1cccc(CNc2ccc([S+](=O)([O-])Nc3cc4ccccc4s3)cc2)c1O
9,17,Cc1ccc(S(=O)(=O)Nc2cnccc2C(=O)Nc2nc(-c3ccncc3)cs2)cc1
10,17,COc1cccc(CNc2ccc(S(=O)(=O)Nc3cccc(-c4ccccc4)c3)cc2)c1O
11,2.55,CC(C)(C)OC(=O)N[C@@H](Cc1ccc(O[S+](=O)([O-])c2cccc3cnccc23)cc1)C(=O)Nc1ccc(-c2ccccc2)cc1
12,23,Cc1ccc(S(=O)(=O)Nc2cccc(C(=O)Nc3nc(-c4ccc(Cl)cc4)cs3)c2)cc1
13,15,Fc1cc(F)cc(Nc2nc(-c3ccncc3)nc3ccccc23)c1
14,24,Fc1ccc(Nc2nc(-c3ccncc3)cc3ccccc23)cc1F
15,> 30,CC(C)(C)c1ccc(-c2nc(SCCCOc3ccccc3)n3[nH]c(=O)cc3n2)cc1
16,2.09,c1ccc(Nc2nc(NCc3ccco3)c3ccccc3n2)cc1
17,> 30,Cc1ccc(-c2cc(C(=O)Nc3ccc(-c4noc(=O)[nH]4)cc3)c3ccccc3n2)cc1C
18,14,N#Cc1cccc(S(=O)(=O)Nc2cnccc2C(=O)Nc2nc(-c3ccccc3)cs2)c1
19,13,O=S(=O)(Nc1ccc2ccccc2c1)c1ccc(NCc2cccc(Cl)c2O)cc1
20,1.75,COc1cc(Cl)c(C)cc1Nc1c2c(nc3ccccc13)CCC2

row,half-life [min],Structure (SMILES)
1,> 30,CC(C)(O)CCc1ccc(OCc2cc(-c3cccc(OC(F)F)c3)c3ncccc3c2)cc1
2,> 30,Cc1sc(NC(=O)Cc2ccc3c(c2)OCO3)nc1-c1ccc2c(c1)CCN2C(=O)c1ccccc1C(F)(F)F
3,> 30,Nc1nc(N)c2cc(Sc3ccc4ccccc4c3)ccc2n1
4,1.9,O=C(NCCc1ccc(OCC(F)(F)F)c(OCC(F)(F)F)c1)c1cc2sccc2n1Cc1ccccc1
5,> 30,O=C1Nc2ccccc2/C1=C\c1ccc(C(=O)O)cc1
6,23,Cc1ccc(S(=O)(=O)Nc2ccc(C(=O)Nc3nc(-c4ccccc4)cs3)c(Cl)c2)cc1
7,1.29,CN(C)CCOC1=Cc2ccccc2Sc2ccc(Cl)cc21
8,18.6,COc1cccc(C(=O)Nc2nc(-c3nnn(-c4cccc(Cl)c4C)c3C)ns2)c1
9,1.21,COc1ccccc1CN1CCNc2cc(Nc3ccccc3)ncc2C1
10,4.18,COc1ccc(CCN2CCC(Nc3nc4ccccc4n3Cc3ccc(F)cc3)CC2)cc1
11,15.9,Fc1ccc(CNc2cc3c(cn2)CN(Cc2ccncc2)CCN3)cc1
12,5,O=C(Nc1nc(-c2ccccc2)cs1)c1ccncc1NS(=O)(=O)c1cccc(Cl)c1
13,19,Cc1ccc(CC(=O)Nc2nc(-c3ccc4c(c3)CCN4C(=O)c3ccccc3C)c(C)s2)cc1C
14,1.52,O=c1cc(CSc2ccc(Cl)cc2)nc(-c2ccccn2)[nH]1
15,11,Clc1ccccc1Nc1nc(-c2ccncc2)nc2ccccc12
16,> 30,O=C(Cc1ccccc1)Nc1ccc(S(=O)(=O)Nc2nccs2)cc1
17,6.3,CCN1C(=O)c2ccccc2S(=O)c2ccc(NC(=O)Cc3ccc(F)cc3)cc21 (stereo unspecified)
18,12,Cc1ccc(-c2cc(C(=O)NCc3cnn(C)c3C)c3cc(Br)ccc3n2)cc1
19,1.95,O=S(=O)(c1ccccc1)c1nc(-c2ccc(F)cc2)oc1N1CCCCCC1
